Consider 13 compounds from patent US20090018134A1, “Compounds - 945” (AstraZeneca AB, priority 2007, published 2009).

Broadly, the IC50 is the concentration that inhibits the measured activity by half.

The structures appear in SMILES notation.

The assay deals with T1, mTOR (Homo sapiens, UniProt P42345).
T1 construct: FLAG; made in house
T1 sequence (P42345 1362-2549): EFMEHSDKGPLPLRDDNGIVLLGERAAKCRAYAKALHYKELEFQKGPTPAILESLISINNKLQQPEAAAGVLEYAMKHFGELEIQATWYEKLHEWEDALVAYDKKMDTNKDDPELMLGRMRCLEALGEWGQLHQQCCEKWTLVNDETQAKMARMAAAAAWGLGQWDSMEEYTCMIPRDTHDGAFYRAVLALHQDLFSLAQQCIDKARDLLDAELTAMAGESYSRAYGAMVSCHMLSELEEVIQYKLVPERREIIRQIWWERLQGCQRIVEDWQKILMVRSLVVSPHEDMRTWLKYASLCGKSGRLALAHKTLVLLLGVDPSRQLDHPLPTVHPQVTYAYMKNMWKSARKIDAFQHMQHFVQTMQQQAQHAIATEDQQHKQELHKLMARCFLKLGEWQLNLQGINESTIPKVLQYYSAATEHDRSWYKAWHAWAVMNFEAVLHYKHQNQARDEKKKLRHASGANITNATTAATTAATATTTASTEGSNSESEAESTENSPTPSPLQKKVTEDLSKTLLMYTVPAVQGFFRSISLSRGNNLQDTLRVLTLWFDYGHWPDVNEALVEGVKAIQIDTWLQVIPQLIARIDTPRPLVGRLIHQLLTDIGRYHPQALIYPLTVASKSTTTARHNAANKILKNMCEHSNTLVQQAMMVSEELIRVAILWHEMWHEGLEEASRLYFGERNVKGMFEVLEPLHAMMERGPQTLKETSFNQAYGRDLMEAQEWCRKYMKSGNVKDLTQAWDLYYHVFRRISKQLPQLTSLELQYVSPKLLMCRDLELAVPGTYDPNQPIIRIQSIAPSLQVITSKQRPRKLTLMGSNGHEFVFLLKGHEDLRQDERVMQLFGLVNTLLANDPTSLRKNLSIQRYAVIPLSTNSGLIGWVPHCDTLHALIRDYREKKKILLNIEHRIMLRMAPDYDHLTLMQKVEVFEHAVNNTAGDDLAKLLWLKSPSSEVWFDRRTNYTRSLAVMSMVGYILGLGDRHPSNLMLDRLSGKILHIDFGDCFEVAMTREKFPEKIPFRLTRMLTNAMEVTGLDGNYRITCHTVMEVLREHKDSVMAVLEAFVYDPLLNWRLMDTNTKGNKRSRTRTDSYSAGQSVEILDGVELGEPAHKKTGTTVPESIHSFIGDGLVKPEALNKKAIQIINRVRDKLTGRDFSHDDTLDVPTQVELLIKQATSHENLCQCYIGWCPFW
Kind of assay: In Vitro mTOR Kinase Assay (Echo), Test (a)(ii). The assay is classed as biochemical. As to conditions: table of enzyme assay Test (a)(ii); read-out: Test (a)(ii) IC50. The procedure, abridged: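 Inhibition of truncated mTOR (1362-2549, FLAG-tagged, purified from stably transfected HEK293 cells) is measured as reduced AlphaScreen signal from a phospho-T389-recognising antibody bound to the biotinylated peptide product. Kinase incubation lasts 2 hours at room temperature. Potency is given as IC50.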
Turning to `Cc1nnc(S(=O)(=O)C2(c3cc(N4CCOC[C@@H]4C)nc(-c4ccc(NC(=O)NC5CC5)cc4)n3)CC2)s1` [Example 38, 3-Cyclopropyl-1-[4-[4-[(3S)-3-methylmorpholin-4-yl]-6-[1-[(5-methyl-1,3,4-thiadiazol-2-yl)sulfonyl]cyclopropyl]pyrimidin-2-yl]phenyl]urea], the IC50 came to 1.31 nM.

With `CNC(=O)Nc1ccc(-c2nc(N3CCOC[C@@H]3C)cc(C3(S(=O)(=O)c4nnc(C)s4)CC3)n2)cc1` [Example 38a], the concentration for half-maximal inhibition (IC50) was determined as 0.918 nM. Then `C[C@H]1COCCN1c1cc(C2(S(=O)(=O)c3nccs3)CC2)nc(-c2ccc(NC(=O)NC3CC3)cc2)n1` [Example 39, 3-Cyclopropyl-1-[4-[4-[(3S)-3-methylmorpholin-4-yl]-6-[1-(1,3-thiazol-2-ylsulfonyl)cyclopropyl]pyrimidin-2-yl]phenyl]urea], with 0.351 nM; and `CNC(=O)Nc1ccc(-c2nc(N3CCOC[C@@H]3C)cc(C3(S(=O)(=O)c4nccs4)CC3)n2)cc1` [Example 39a], with 0.502 nM; and `CNC(=O)Nc1ccc(-c2nc(N3CCOC[C@@H]3C)cc(C3(S(=O)(=O)c4ncc[nH]4)CC3)n2)cc1` [Example 40], with 4.36 nM. With `C[C@H]1COCCN1c1cc(C2(S(C)(=O)=O)CC2)nc(-c2ccc(NC(=S)NCCC#N)cc2)n1` [Example 41, 3-(2-Cyanoethyl)-1-[4-[4-[(3S)-3-methylmorpholin-4-yl]-6-(1-methylsulfonylcyclopropyl)pyrimidin-2-yl]phenyl]thiourea], the IC50 is 30.8 nM. For `Cc1csc(S(=O)(=O)C2(c3cc(N4CCOCC4)nc(-c4ccc(NC(=O)NC5CC5)cc4)n3)CC2)n1` [Example 42, 3-Cyclopropyl-1-[4-[4-[1-[(4-methyl-1,3-thiazol-2-yl)sulfonyl]cyclopropyl]-6-morpholin-4-ylpyrimidin-2-yl]phenyl]urea], the IC50 was found to be 0.705 nM.

In the case of `Cc1csc(S(=O)(=O)C2(c3cc(N4CCOCC4)nc(-c4ccc(NC(=O)NCCO)cc4)n3)CC2)n1` [Example 42a, 3-(2-hydroxyethyl)-1-[4-[4-[1-[(4-methyl-1,3-thiazol-2-yl)sulfonyl]cyclopropyl]-6-morpholin-4-ylpyrimidin-2-yl]phenyl]urea], the half-maximal inhibitory concentration (IC50) is 2.61 nM. Then `Cc1csc(S(=O)(=O)C2(c3cc(N4CCOCC4)nc(-c4ccc(NC(=O)Nc5cnn(C)c5)cc4)n3)CC2)n1` [Example 42b, 3-(1-methylpyrazol-4-yl)-1-[4-[4-[1-[(4-methyl-1,3-thiazol-2-yl)sulfonyl]cyclopropyl]-6-morpholin-4-ylpyrimidin-2-yl]phenyl]urea], with 5.35 nM; and `CNC(=O)Nc1ccc(-c2nc(N3CCOCC3)cc(C3(S(=O)(=O)c4nc(C)cs4)CC3)n2)cc1` [Example 42c, 3-methyl-1-[4-[4-[1-[(4-methyl-1,3-thiazol-2-yl)sulfonyl]cyclopropyl]-6-morpholin-4-ylpyrimidin-2-yl]phenyl]urea], with 3.6 nM; and `Cc1csc(S(=O)(=O)C2(c3cc(N4CCOCC4)nc(-c4ccc(NC(=O)NC5CCC5)cc4)n3)CC2)n1` [Example 42e, 3-cyclobutyl-1-[4-[4-[1-[(4-methyl-1,3-thiazol-2-yl)sulfonyl]cyclopropyl]-6-morpholin-4-ylpyrimidin-2-yl]phenyl]urea], with 2.57 nM. With `Cc1csc(S(=O)(=O)C2(c3cc(N4CCOCC4)nc(-c4ccc(NC(=O)NCCC#N)cc4)n3)CC2)n1` [Example 42f, 3-(2-cyanoethyl)-1-[4-[4-[1-[(4-methyl-1,3-thiazol-2-yl)sulfonyl]cyclopropyl]-6-morpholin-4-ylpyrimidin-2-yl]phenyl]urea] the figure was 2.64 nM; with `CCCNC(=O)Nc1ccc(-c2nc(N3CCOCC3)cc(C3(S(=O)(=O)c4nc(C)cs4)CC3)n2)cc1` [Example 42g, 3-[4-[4-[1-[(4-methyl-1,3-thiazol-2-yl)sulfonyl]cyclopropyl]-6-morpholin-4-ylpyrimidin-2-yl]phenyl]-1-propylurea], 4.01 nM.
